Patent US20040009964A1, “Compositions and methods for the treatment of matrix metalloproteinase-related diseases” (BioInterface Technologies, Inc., priority 2002, published 2004)
“Also recorded” adds a separate entry of the source.

Tests used:
[1] = biological target: human neutrophil collagenase (Homo sapiens, UniProt P22894); details: cited from earlier work; for Effect of metal ion binding on collagenase activity: binding to human neutrophil collagenase
matrix metalloproteinase = details: synoviocyte MMP activity; cited from earlier work
E. coli (ATCC 25922) = details: overnight at 37° C., dilutions 1.95 to 250 μg/ml
Description: (§1) In vitro antimicrobial activity was calculated by determining the minimum inhibitory concentration (MIC) for a silver thiosulfate ion complex composition; for example, the silver thiosulfate ion complex produced according to Example 3. The antimicrobial activity of this embodiment was determined by using serial two-fold dilutions ranging from 1.95 to 250 μg/ml using tryptic soy broth (Difco) as a diluent. Each dilution was inoculated with a 0.005 ml aliquot from a 24-hour microbial growth culture having a concentration of approximately 10^5 to 10^7 CFU/ml. The dilutions were incubated overnight at 37° C. The MIC was determined by identifying the lowest dilution (expressed as μg/ml) of the silver thiosulfate ion complex that was without evidence of growth (i.e. was not cloudy).

[2] = system: P. aeruginosa (ATCC 27853); details: overnight at 37° C., dilutions 1.95 to 250 μg/ml
Description: as §1

S. aureus (ATCC 25923) = details: overnight at 37° C., dilutions 1.95 to 250 μg/ml
Description: as §1

[3] = system: S. epidermidis (ATCC 12228); details: overnight at 37° C., dilutions 1.95 to 250 μg/ml
Description: as §1

Sequence of human neutrophil collagenase (P22894 101-467): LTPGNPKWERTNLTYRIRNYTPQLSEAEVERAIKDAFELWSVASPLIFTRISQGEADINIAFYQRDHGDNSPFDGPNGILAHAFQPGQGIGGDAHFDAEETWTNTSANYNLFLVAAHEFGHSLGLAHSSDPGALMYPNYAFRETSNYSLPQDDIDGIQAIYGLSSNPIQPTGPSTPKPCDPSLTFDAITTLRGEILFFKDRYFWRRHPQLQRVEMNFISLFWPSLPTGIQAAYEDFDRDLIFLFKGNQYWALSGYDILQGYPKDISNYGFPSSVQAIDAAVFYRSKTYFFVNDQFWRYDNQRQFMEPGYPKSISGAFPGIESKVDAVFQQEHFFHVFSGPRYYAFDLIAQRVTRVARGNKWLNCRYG

**Q.** Which “Direct inhibition of matrix metalloproteinase” value ([1]; Ag(I) concentrations up to 10 μM, higher concentrations precipitated in the culture media) does the source give for [Ag+] [Ag(I)] here?
**A.** did not directly inhibit

**Q.** For [Au+] [Au(I)], which “Effect of metal ion binding on collagenase activity” value (“Effect of metal ion binding” below) [1] is on record?
**A.** noncompetitive inhibition; also recorded: collagenase inhibition

**Q.** For [Cd+2] [Cd(II)], which “Effect of metal ion binding” value [1] is on record?
**A.** noncompetitive inhibition; also recorded: collagenase inhibition

**Q.** Which “Effect of metal ion binding” value [1] does the source give for [Cu+2] [Cu(II)] here?
**A.** noncompetitive inhibition; also recorded: collagenase inhibition

**Q.** For [Hg+2] [Hg(II)], which “Effect of metal ion binding” value [1] is on record?
**A.** collagenase inhibition

**Q.** Which “Effect of metal ion binding” value [1] does the source give for [Zn+2] [Zn(II)] here?
**A.** retention of activity

**Q.** With O=[N+]([O-])[O-].O=[N+]([O-])[O-].O=[N+]([O-])[O-].[Ga+3] [gallium nitrate] as the compound, how does the “Inhibition of matrix metalloproteinase activity” value (matrix metalloproteinase) read?
**A.** can inhibit matrix metalloproteinase activity

**Q.** With “Na4[Ag2(S2O3)3]H2O [Silver Thiosulfate Ion Complexes]” as the compound, how does the MIC (E. coli (ATCC 25922)) read?
**A.** <1.95 µg/mL

**Q.** And the MIC [2]?
**A.** <1.95 µg/mL

**Q.** What about the MIC (S. aureus (ATCC 25923)) of the same compound?
**A.** <1.95 µg/mL

**Q.** And the MIC [3]?
**A.** <1.95 µg/mL
